Data as given in US20190030018A1 (Celgene Corporation, priority 2017, published 2019).

Test system: 563 solid tumor cell lines
Experiment: Luminex assay in PRISM, 5 days treatment (AUC)
Assay type: cell-based
Set-up: AUC: scale not given here
Experimental: The AUC values provided in Table 80 below were calculated based on the Median Fluorescent Intensity values, the primary read out of the Luminex assay in PRISM. The following parameters were used in this assay: • 8 point dose was used in triplicate • max concentration of 10 μM was used with serial 4-fold dilutions (low of […]) • 563 adherent cell lines in 23 pools. • treatment duration was 5 days.

Structure (SMILES): O=C1CCC(N2Cc3cc(CNC(=O)C(F)(F)c4ccc(Cl)cc4)ccc3C2=O)C(=O)N1 (stereo not shown) [Compound 1, 2-(4-chlorophenyl)-N-((2-(2,6-dioxopiperidin-3-yl)-1-oxoisoindolin-5-yl)methyl)-2,2-difluoroacetamide]
- AUC (SIMA_AUTONOMIC_GANGLIA): 0.764
- AUC (SJSA1_BONE): 0.808
- AUC (SKES1_BONE): 0.984
- AUC (SKHEP1_LIVER): 0.817
- AUC (SKLU1_LUNG): 0.644
- AUC (SKMEL2_SKIN): 0.910
- AUC (SKMEL3_SKIN): 0.848
- AUC (SKMEL5_SKIN): 0.831
- AUC (SKMEL24_SKIN): 0.862
- AUC (SKMEL30_SKIN): 0.795
- AUC (SKMES1_LUNG): 0.902
- AUC (SKNAS_AUTONOMIC_GANGLIA): 0.832
- AUC (SKNBE2_AUTONOMIC_GANGLIA): 0.879
- AUC (SKNEP1_BONE): 0.523
- AUC (SKNFI_AUTONOMIC_GANGLIA): 0.852
- AUC (SKOV3_OVARY): 0.850
- AUC (SKPNDW_BONE): 0.861
- AUC (SKUT1_SOFT_TISSUE): 0.845
- AUC (SNB75_CENTRAL_NERVOUS_SYSTEM): 0.768
- AUC (SNGM_ENDOMETRIUM): 0.794
- AUC (SNU46_UPPER_AERODIGESTIVE_TRACT): 0.925
- AUC (SNU61_LARGE_INTESTINE): 0.881
- AUC (SNU81_LARGE_INTESTINE): 0.400
- AUC (SNU182_LIVER): 0.179
- AUC (SNU216_STOMACH): 0.521
- AUC (SNU245_BILIARY_TRACT): 0.853
- AUC (SNU308_BILIARY_TRACT): 0.873
- AUC (SNU398_LIVER): 0.951
- AUC (SNU407_LARGE_INTESTINE): 0.284
- AUC (SNU410_PANCREAS): 0.994
- AUC (SNU423_LIVER): 0.697
- AUC (SNU449_LIVER): 0.971
- AUC (SNU668_STOMACH): 0.423
- AUC (SNU685_ENDOMETRIUM): 0.812
- AUC (SNU719_STOMACH): 0.869
- AUC (SNU738_CENTRAL_NERVOUS_SYSTEM): 0.826
- AUC (SNU840_OVARY): 0.848
- AUC (SNU869_BILIARY_TRACT): 0.782
- AUC (SNU878_LIVER): 0.890
- AUC (SNU886_LIVER): 0.656
- AUC (SNU1041_UPPER_AERODIGESTIVE_TRACT): 0.806
- AUC (SNU1066_UPPER_AERODIGESTIVE_TRACT): 0.860
- AUC (SNU1077_ENDOMETRIUM): 0.759
- AUC (SNU1105_CENTRAL_NERVOUS_SYSTEM): 0.620
- AUC (SNU1196_BILIARY_TRACT): 0.653
- AUC (SNU1214_UPPER_AERODIGESTIVE_TRACT): 0.826
- AUC (SNUC2A_LARGE_INTESTINE): 0.608
- AUC (SNUC4_LARGE_INTESTINE): 0.290
- AUC (SQ1_LUNG): 0.838
- AUC (SU8686_PANCREAS): 0.848
- AUC (SUIT2_PANCREAS): 0.856
- AUC (SW780_URINARY_TRACT): 0.986
- AUC (SW837_LARGE_INTESTINE): 0.995
- AUC (SW948_LARGE_INTESTINE): 0.766
- AUC (SW1088_CENTRAL_NERVOUS_SYSTEM): 0.835
- AUC (SW1116_LARGE_INTESTINE): 0.879
- AUC (SW1271_LUNG): 0.718
- AUC (SW1573_LUNG): 0.894
- AUC (SW1710_URINARY_TRACT): 0.835
- AUC (SW1990_PANCREAS): 0.874
- AUC (T3M10_LUNG): 0.951
- AUC (T24_URINARY_TRACT): 0.906
- AUC (T47D_BREAST): 0.698
- AUC (T98G_CENTRAL_NERVOUS_SYSTEM): 0.830
- AUC (TC32_BONE): 0.681
- AUC (TCCPAN2_PANCREAS): 0.905
- AUC (TE1_OESOPHAGUS): 0.875
- AUC (TE5_OESOPHAGUS): 0.797
- AUC (TE6_OESOPHAGUS): 0.864
- AUC (TE8_OESOPHAGUS): 0.802
- AUC (TE9_OESOPHAGUS): 0.911
- AUC (TE10_OESOPHAGUS): 0.872
- AUC (TE11_OESOPHAGUS): 0.870
- AUC (TE14_OESOPHAGUS): 0.898
- AUC (TEN_ENDOMETRIUM): 0.815
- AUC (TM31_CENTRAL_NERVOUS_SYSTEM): 0.424
- AUC (TOV21G_OVARY): 0.864
- AUC (TOV112D_OVARY): 0.871
- AUC (TT2609C02_THYROID): 0.251
- AUC (TTC709_SOFT_TISSUE): 0.520
- AUC (TT_OESOPHAGUS): 0.859
- AUC (TT_THYROID): 0.179
- AUC (TUHR4TKB_KIDNEY): 0.265
- AUC (U2OS_BONE): 0.862
- AUC (U87MG_CENTRAL_NERVOUS_SYSTEM): 0.724
- AUC (U118MG_CENTRAL_NERVOUS_SYSTEM): 0.871
- AUC (U251MG_CENTRAL_NERVOUS_SYSTEM): 0.806
- AUC (UACC62_SKIN): 0.837
- AUC (UACC257_SKIN): 0.863
- AUC (UBLC1_URINARY_TRACT): 0.875
- AUC (UO31_KIDNEY): 0.710
- AUC (VMRCRCW_KIDNEY): 0.345
- AUC (VMRCRCZ_KIDNEY): 0.969
- AUC (WM88_SKIN): 0.802
- AUC (WM793_SKIN): 0.866
- AUC (WM983B_SKIN): 0.861
- AUC (WM1799_SKIN): 0.101
- AUC (WM2664_SKIN): 0.578
- AUC (X8MGBA_CENTRAL_NERVOUS_SYSTEM): 0.805
- AUC (X42MGBA_CENTRAL_NERVOUS_SYSTEM): 0.845
- AUC (X253JBV_URINARY_TRACT): 0.966
- AUC (X253J_URINARY_TRACT): 0.905
- AUC (X647V_URINARY_TRACT): 0.284
- AUC (X769P_KIDNEY): 0.463
- AUC (X786O_KIDNEY): 0.853
- AUC (X5637_URINARY_TRACT): 0.624
- AUC (X8305C_THYROID): 0.849
- AUC (X8505C_THYROID): 0.558
- AUC (X2313287_STOMACH): 0.254
- AUC (YAPC_PANCREAS): 0.719
- AUC (YD8_UPPER_AERODIGESTIVE_TRACT): 0.501
- AUC (YD10B_UPPER_AERODIGESTIVE_TRACT): 0.903
- AUC (YD38_UPPER_AERODIGESTIVE_TRACT): 0.877
- AUC (YKG1_CENTRAL_NERVOUS_SYSTEM): 0.936
- AUC (ZR751_BREAST): 0.853
